# Values quoted from earlier work as cited in patent US20150132345A1, “NITRIC OXIDE-SEQUESTERING TOPICAL FORMULATIONS” (priority 2011, published 2015).
# Key:
# Details in all cases: multiple 30 minutes treatments of 160 ppm nitric oxide
# Escherichia coli = test system: Escherichia coli
# Pseudomonas aeruginosa = test system: Pseudomonas aeruginosa
# Staphylococcus aureus = test system: Staphylococcus aureus
smiles,measurement,setting,value
[N]=O [nitric oxide],decrease in the bacterial load,Escherichia coli,> 5 log 10 colony forming unit per milliliter (CFU/ml)
same,decrease in the bacterial load,Pseudomonas aeruginosa,> 5 log 10 colony forming unit per milliliter (CFU/ml)
same,decrease in the bacterial load,Staphylococcus aureus,> 5 log 10 colony forming unit per milliliter (CFU/ml)
